In patent US20240024255A1 (priority 2022, published 2024):
Marks after values point to notes of the source that are not given here.

Tests used:
[1] = parameters: species or system Wistar rats; settings: rat, in vivo, po, 1000 mg/kg
Method: Twelve healthy male Wistar rats aged 10-12-week-old (250-300 g) were used for the bioavailability study. The animals were procured from Biogen Laboratory Animal Facility, Bangalore, India (Reg No. 971/PO/RcBiBt/S/06/CPCSEA). All the animals were housed in air-conditioned room under temperature (22±3° C.) and humidity (30-70%) controlled environment. The rats were fed standard rodent diet and water ad libitum. The animal experimentation protocol was approved by the Institutional Animal Ethics Committee (IAEC) of Vidya Herbs Pvt Ltd., Bangalore, India (VHPL/PCL/IAEC/02/2021).
After 7-day acclimatization, the animals were fasted overnight prior to the experiment, with free access to water. […] The sample size was determined by power analysis (Festing and Altman, 2002) using the formula,
The extracts were formulated in a mixture of Cremaphor, Tween 80, ethanol, and water. The extracts were administered by oral gavage at a single dose of 1000 mg/kg. The animals were anesthetised in anaesthesia chamber supplied with 2% gaseous isoflurane. Blood samples were collected from tail vein at 0.25, 0.5, 1, 2, 4, 8, 12 and 24 h after oral administration of extracts. The blood samples collected in heparinized tubes were centrifuged at 3000 rpm for 10 min. The plasma samples were stored at −20° C. for further analysis. […]

[2] = assay type: in vitro ADME
Method: Briefly, 20 mL of the saline solution containing 1 mL plant extracts were acidified to pH 2.0 by adding porcine pepsin preparation (40 mg/mL in 0.1 M HCl) and allowed for gastric digestion at 37° C. in a shaker incubator. After 1 h, the pH of the solution was adjusted to 5.3 using 0.9 M NaHCO3 solution. To this added 200 μL of bovine and porcine bile extract solution (100 mg/mL in saline), and 100 μL of pancreatin solution (80 mg/mL in saline). The pH was readjusted to 7.5 using 1 M NaOH followed by incubation at 37° C. for 2 h to accomplish the intestinal digestion phase. Aliquots of samples before and after digestion were centrifuged at 5000 g; upper phase used for anti-lipase and antioxidant assays. The samples were further used for HPLC analysis to determine the bioavailability.
HPLC analysis of the samples before and after gastrointestinal digestion was performed following the in-house validated chromatographic conditions using a Shimadzu LC2030 C Prominence-i (Japan) system equipped with a high sensitivity LC2030 ultraviolet (UV) detector and LabSolutions software.

[3] = test system: carrageenan-induced paw edema; test: Carrageenan-induced acute inflammatory model (paw edema); assay type: in vivo, Wistar rats; settings: Indomethacin 10 mg/kg.bw
Method: Wistar rats were randomly allotted into six groups (n=6) and kept for 7-day acclimatization. Group 1 was treated as control, group 2 received indomethacin 10 mg/kg.bw. […] All animal studies have been carried out by following the animal ethical guidelines and regulation of Institutional Animal Ethics Committee of Vidya Herbs Pvt. Ltd. Bangalore. India. with the protocol number VHPL/PCL/IAEC/08/19.
The carrageenan-induced paw edema test was performed in accordance with the method 17 with some modifications. Drugs were administered to all the respective groups. One hour later, the animals were injected with 0.01 mL of 1% (w/v) freshly prepared carrageenan solution into the right-hind paw sub plantar injection. Paw thickness and volume were measured after 30 min, 1, 2, 4, and 24 h after carrageenan injection using Vernier callipers and Plethysmometer, respectively. The percentage inhibition of inflammation was calculated.
Data were analyzed using one-way analysis of variance (ANOVA) with Duncan multiple range test for means ±standard error, where *P<0.001 was considered to indicate statistically significant difference between groups. All the experimental data were derived from three independent experiments.

[4] = biological target: Monoamine oxidase-B (MAO-B); test: MAO-B inhibition assay (rat liver homogenate); assay type: biochemical
Method: The rat liver tissues were quickly removed to wash in ice-cold potassium phosphate buffer (0.2 M, pH 7.6), and stored at −80° C. 5 g of liver tissue was homogenized (1:20, w/v) in 0.3 M sucrose at 4° C. and centrifuged at 2000×g for 10 min. The supernatant was further centrifuged at 12000×g for 25 min. The resulting pellet suspended in minimal volume in 0.3 M sucrose and overlay on 1.3 M sucrose and centrifuge at 12000×g (40 min) to obtain a crude mitochondrial pellet. The pellet was resuspended in 2 mL 0.2 M phosphate buffer (pH 7.6) used as MAO-B enzyme source. Total protein concentration was measured by the method of Bradford and adjusted with buffer (0.2 M; pH 7.6) to 0.5 mg protein per ml (stock solution) and stored at −80° C. in aliquots until required.
The assay was carried out in 96-well microplates according to the process modified by Holt' et al. (1997). […] Paragyline was used as the standard inhibitor.

O=C(/C=C/c1ccc(O)cc1)CC(=O)/C=C/c1ccc(O)cc1 [BDMC, bisdemethoxycurcumin]
AUC0-Last [1]: markedly increased | bioavailability with respect to undigested sample [2]: considerably higher | concentration in the samples at different digestive phases [2]: remained unchanged

COc1ccc2c(c1)c(CC(=O)O)c(C)n2C(=O)c1ccc(Cl)cc1 [Indomethacin]
Paw thickness ([3]; 0 h): 2.41 ± 0.12 mm | Paw volume ([3]; 0 h): 1.12 ± 0.04 mL | Paw thickness ([3]; 0.5 h): 3.18 ± 0.09*** mm | Paw volume ([3]; 0.5 h): 1.32 ± 0.04** mL | Paw thickness ([3]; 1 h): 3.73 ± 0.07*** mm | Paw volume ([3]; 1 h): 1.57 ± 0.08*** mL | Paw thickness ([3]; 2 h): 3.12 ± 0.11*** mm | Paw volume ([3]; 2 h): 1.47 ± 0.06*** mL | Paw thickness ([3]; 4 h): 2.67 ± 0.09*** mm | Paw volume ([3]; 4 h): 1.37 ± 0.03*** mL | Paw thickness ([3]; 24 h): 2.43 ± 0.10*** mm | Paw volume ([3]; 24 h): 1.16 ± 0.05*** mL

C#CCN(C)Cc1ccccc1 [paragyline]
MAO-B IC-50 [4]: 6.5 µg/mL
